Earlier results as cited in patent US20080305171A1, “PYRROLOPYRAZINE, FORMULATIONS, METHODS OF MANUFACTURE, AND METHODS OF USE THERE” (priority 2007, published 2008).

Details: ethanol:phosphate buffer solution, increasing temperature and pH

CN1CCN(C(=O)OC2c3nccnc3C(=O)N2c2ccc(Cl)cn2)CC1 (racemic) [COMPOUND II, 6-(5-chloro-2-pyridyl)-5-[(4-methyl-1-piperazinyl)carbonyloxy]-7-oxo-6,7-dihydro-5H-pyrrolo[3,4-b]pyrazine]
chemical and isomeric stability in solution: both degrades and racemizes
